The source of these data is patent US20230248785A1, “METHODS AND COMPOSITIONS FOR TREATING METABOLIC CONDITIONS” (BACTANA CORP., priority 2020, published 2023).

This assay has as its system C57BL/6J mice on high-fat diet (prediabetes). Description: Fasting blood glucose in prediabetic high-fat diet mice treated with FPZ, metformin or the combination (Example 6). Conditions: after 2 weeks of daily oral gavage, 100 mg/kg; control gavaged with water. It is filed as in vivo.

Experimental: The study uses 29 C57BL/6J mice, which are placed on a high-fat diet and allowed to develop prediabetes. The mice are fasted for 16 h, and the fasting blood glucose levels are measured to be greater than 105 mg/dL. The mice are divided up into control and treatment groups, and they are treated daily for 7 weeks with either 100 mg/kg FPZ, 100 mg/kg metformin, or a combination of FPZ with metformin, given by oral gavage. Fasting blood glucose are recorded at 2, 4, and 7 weeks of treatment.

`CN(C)C(=N)N=C(N)N` [metformin]: the “reduction in fasting blood glucose level compared to the control group” value stood at 24%.
